Columns and labels:
[1] = system: Staphylococcus aureus Russell; assay: MIC test of synergy with ampicillin; assay type: cell-based; conditions: ampicillin administered separately, read-out: MIC of ampicillin alone (not inhibited by)
Method: b. […] The following test results were obtained using a strain of Staphylococcus aureus Russell which is neither inhibited by 250 μg/ml of ampicillin nor inhibited by 5 μg/ml of synergist aministered separately.

Acute toxicity in mice = conditions: mouse, in vivo
[2] = molecular target: Staphylococcus aureus (Russell) β-lactamase (Staphylococcus aureus, UniProt P00807); assay: β-lactamase inhibition assay (Belgian Patent No. 827926); assay type: biochemical; conditions: enzyme of Staphylococcus aureus (Russell); read-out: Approximate I50 (converted)
Method: (§1) When the compound prepared by the method of Example 1 was tested against certain enzymes by the β-lactamase inhibition assay described in Belgian Patent No. 827926 the following ^I 50 values were obtained: […]

E. coli JT10 β-lactamase = assay: as above; assay type: biochemical; conditions: enzyme of E. coli JT10
Method: as §1

E. coli JT4 β-lactamase = E. coli JT4 β-lactamase (Escherichia coli, UniProt P62593); assay: as above; assay type: biochemical; conditions: enzyme of E. coli JT4; read-out: Approximate I50 (converted)
Method: as §1

[3] = molecular target: Klebsiella aerogenes AE70 β-lactamase; assay: as above; assay type: biochemical; conditions: enzyme of Klebsiella aerogenes AE70
Method: as §1

Sequence of E. coli JT4 β-lactamase (P62593 24-286 limits assumed): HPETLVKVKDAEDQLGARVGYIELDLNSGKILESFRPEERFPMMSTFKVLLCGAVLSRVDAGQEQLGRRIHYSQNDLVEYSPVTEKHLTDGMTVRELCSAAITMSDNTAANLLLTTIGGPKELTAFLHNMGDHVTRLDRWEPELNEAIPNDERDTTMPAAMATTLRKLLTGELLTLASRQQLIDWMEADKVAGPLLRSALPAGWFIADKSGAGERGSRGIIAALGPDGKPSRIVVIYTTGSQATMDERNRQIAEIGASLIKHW
Sequence of Staphylococcus aureus (Russell) β-lactamase (P00807 25-281): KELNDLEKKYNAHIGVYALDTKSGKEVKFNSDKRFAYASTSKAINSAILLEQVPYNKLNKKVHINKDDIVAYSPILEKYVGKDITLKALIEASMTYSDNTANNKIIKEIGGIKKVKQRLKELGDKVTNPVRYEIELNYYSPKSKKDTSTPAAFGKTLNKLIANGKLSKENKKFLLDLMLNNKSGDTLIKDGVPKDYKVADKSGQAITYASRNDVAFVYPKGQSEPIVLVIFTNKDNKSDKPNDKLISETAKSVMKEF

## CC1(C)S[C@@H]2[C@H](NC(=O)[C@H](N)c3ccccc3)C(=O)N2[C@H]1C(=O)O [ampicillin]
[1]
  MIC: > 250 µg/mL

## C=CCN(CC=C)C/C=C1\O[C@@H]2CC(=O)N2[C@H]1C(=O)OCc1ccccc1 [Example 8, Benzyl diallylaminodeoxyclavulanate]
Acute toxicity in mice; oral route
  LD50: > 500 mg/kg
Acute toxicity in mice; sc, sub-cutaneous route
  LD50: > 500 mg/kg

## CCCN(C/C=C1\O[C@@H]2CC(=O)N2[C@H]1C(=O)O)CCC [Example 12, 9-(N,N-dipropylamino)-9-deoxyclavulanio acid]
Acute toxicity in mice; oral route
  LD50: > 500 mg/kg
Acute toxicity in mice; sc, sub-cutaneous route
  LD50: > 500 mg/kg

## O=C(OCc1ccccc1)[C@H]1/C(=C/CN(Cc2ccccc2)Cc2ccccc2)O[C@@H]2CC(=O)N21 [Example 1]
[2]
  IC50: 128 µM
E. coli JT10 β-lactamase
  Approximate I50: 0.24 mg/mL
E. coli JT4 β-lactamase
  IC50: 42.7 µM
[3]
  Approximate I50: 0.40 mg/mL

From patent US4382084A, “Antibiotics” (Beecham Group Limited, priority 1975, dated 1983)
